In patent publication US8802673B2, “Heterocyclic amine derivatives” (Hoffmann-La Roche Inc, priority 2011, dated 2014) one finds Ki data, which are given here for 7 compounds.

In one assay the target is rat TAAR1 (Rattus norvegicus (Rat), UniProt Q923Y9). Kind of assay: Radioligand binding assay on rat TAAR1. The settings on record: rat TAAR1 (second value of the cell), HEK-293 membranes; read-out: Ki (μM) mouse/rat. The procedure, abridged:
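Membranes from HEK293 cells stably expressing rat TAAR1 were used, with radioligand Kd determined by saturation for each batch. Compounds (10 pM to 10 μM, in duplicate) were incubated for 1 h at 4 °C. Bound radioactivity was collected by filtration onto PEI-soaked GF/C filters and counted by scintillation.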

For another assay, the target named is mouse TAAR1 (Mus musculus (Mouse), UniProt Q923Y8). Kind of assay: Radioligand binding assay on mouse TAAR1. As to conditions: mouse TAAR1 (first value of the cell), HEK-293 membranes; read-out: Ki (μM) mouse/rat. The procedure, abridged: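 Membranes from HEK293 cells stably expressing mouse TAAR1, Kd of radioligand determined per batch by saturation. Compounds tested 10 pM to 10 μM in duplicate, incubated 1 h at 4 °C, then filtration over PEI-soaked GF/C filters and scintillation counting.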
mouse TAAR1, sequence (Q923Y8 whole entry): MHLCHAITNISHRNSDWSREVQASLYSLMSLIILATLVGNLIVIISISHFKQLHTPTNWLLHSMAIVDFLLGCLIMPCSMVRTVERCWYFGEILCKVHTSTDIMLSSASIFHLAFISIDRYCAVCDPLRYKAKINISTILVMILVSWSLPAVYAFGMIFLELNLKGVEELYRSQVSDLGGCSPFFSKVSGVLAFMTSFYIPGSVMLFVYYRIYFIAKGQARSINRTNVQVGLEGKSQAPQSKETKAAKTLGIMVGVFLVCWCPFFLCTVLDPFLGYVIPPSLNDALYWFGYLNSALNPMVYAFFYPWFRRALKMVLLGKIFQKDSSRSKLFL

rat TAAR1, sequence (Q923Y9 whole entry): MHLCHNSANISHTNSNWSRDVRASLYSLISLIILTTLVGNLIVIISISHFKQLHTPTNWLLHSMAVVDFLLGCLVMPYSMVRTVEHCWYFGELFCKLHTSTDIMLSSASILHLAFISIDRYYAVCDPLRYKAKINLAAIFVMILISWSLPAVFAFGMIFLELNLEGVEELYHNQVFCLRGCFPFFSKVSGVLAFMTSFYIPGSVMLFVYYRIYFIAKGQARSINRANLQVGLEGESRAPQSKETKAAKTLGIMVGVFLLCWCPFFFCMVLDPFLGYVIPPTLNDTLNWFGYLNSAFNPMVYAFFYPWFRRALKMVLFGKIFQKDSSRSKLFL

With `FC(F)(F)c1ncc(Nc2ccc([C@H]3CNCCO3)cc2)cn1` [Example 153, ((S)-4-Morpholin-2-yl-phenyl)-(2-trifluoromethyl-pyrimidin-5-yl)-amine], the values for the Ki at rat TAAR1 and at mouse TAAR1 were 0.84 µM and 0.007 µM, respectively.

Take `Clc1ccc(Nc2ccc([C@@H]3CNCCO3)cc2)cn1` [Example 67, (R)-6-Chloro-N-(4-(morpholin-2-yl)phenyl)pyridin-3-amine]: the Ki stood at 0.292 µM on rat TAAR1 and 0.0074 µM on mouse TAAR1.

In the case of `FC(F)(F)c1cc(Nc2ccc([C@@H]3CNCCO3)cc2)ncn1` [Example 198, (R)—N-(4-(Morpholin-2-yl)phenyl)-6-(trifluoromethyl)pyrimidin-4-amine], the Ki at rat TAAR1 worked out at 0.163 µM; on mouse TAAR1 it was 0.0419 µM.

As to `CCOc1cnc(Nc2ccc([C@@H]3CNCCO3)cc2F)nc1` [Example 132, (5-Ethoxy-pyrimidin-2-yl)-((R)-2-fluoro-4-morpholin-2-yl-phenyl)-amine], the Ki on rat TAAR1 stood at 0.0182 µM; at mouse TAAR1, 0.0047 µM.

As for `N#Cc1ccc(CNc2ccc([C@H]3CNCCO3)cc2)cc1` [Example 23, 4-[((S)-4-Morpholin-2-yl-phenylamino)-methyl]-benzonitrile], the Ki turned out to be 1.64 µM at rat TAAR1 and 0.0514 µM at mouse TAAR1.

As for `c1nc(Nc2ccc(C3CNCCO3)cn2)ncc1C1CC1` (racemic) [Example 92, (RS)-5-Cyclopropyl-N-(5-(morpholin-2-yl)pyridin-2-yl)pyrimidin-2-amine], the Ki on rat TAAR1 worked out at 0.275 µM; on mouse TAAR1, 0.0229 µM.

`CCOc1cnc(Nc2ccc([C@@H]3CNCCO3)cc2)nc1` [Example 105, (5-Ethoxy-pyrimidin-2-yl)-((R)-4-morpholin-2-yl-phenyl)-amine]: the Ki on rat TAAR1 amounted to 0.127 µM; at mouse TAAR1, 0.0116 µM.
